Measurements: ChEMBL document CHEMBL5634090, “Design of phenothiazine-based cationic amphiphilic derivatives incorporating arginine residues: Potential membrane-active broad-spectrum antimicrobials combating pathogenic bacteria in vitro and in vivo” (Eur J Med Chem, 2023)
In brackets after ≈: the same amount, converted by molar mass. Activity calls are given as the source filed them. The rule behind the calls is not given here.

Tests used:
[1] = system: Escherichia coli; assay: Antibacterial activity against Escherichia coli ATCC 25922 in presence of 20 umol/L Fe2+ by broth microdilution method; format: functional
[2] = Selectivity index, ratio of CC50 for cytotoxicity against HEK293 cells to MIC for antibacterial activity against Escherichia coli ATCC 25922; format: toxicity, cell-based; conditions: human, read-out: Selectivity Index
[3] = system: Escherichia coli; assay: Antibacterial activity against Escherichia coli ATCC 25922 in presence of 20 umol/L Fe3+ by broth microdilution method; format: functional
[4] = system: Pseudomonas aeruginosa; assay: Antibacterial activity against Pseudomonas aeruginosa ATCC 9027 infected in cyclophosphamide immunosuppressed keratitis mouse model assessed as log reduction in number of viable bacterial colonies at 10 mg/ml administrated tropically; format: functional
[5] = system: Staphylococcus aureus; assay: Antibacterial activity against methicillin resistant Staphylococcus aureus NCTC 10442 in presence of 20 umol/L Fe2+ by broth microdilution method; format: functional
[6] = system: Escherichia coli; assay: Antibacterial activity against Escherichia coli ATCC 25922 in presence of 19 umol/L Zn2+ by broth microdilution method; format: functional
[7] = system: Escherichia coli; assay: Antibacterial activity against Escherichia coli ATCC 25922 in presence of 2.5 mmol/L Ca2+ by broth microdilution method; format: functional
[8] = system: Staphylococcus aureus; assay: Antibacterial activity against methicillin resistant Staphylococcus aureus N315 in presence of 1 mmol/L Mg2+ by broth microdilution method; format: functional
[9] = system: Klebsiella pneumoniae; assay: Antibiofilm activity against 24 hrs preformed biofilm in Klebsiella pneumoniae ATCC 10031 assessed as reduction in biofilm viability at 0.78 ug/ml relative to control; format: functional; conditions: dose 0.78 µg/ml
[10] = system: Staphylococcus aureus; assay: Antibacterial activity against Staphylococcus aureus ATCC 29213 assessed as log reduction in bacterial load at 4 times MIC measured after 2 hrs by time kill assay; format: functional
[11] = system: Staphylococcus aureus; assay: Antibacterial activity against Staphylococcus aureus ATCC 29213 by microbroth dilution assay; format: functional
[12] = Selectivity index, ratio of CC50 for cytotoxicity against HEK293 cells to MIC for antibacterial activity against methicillin resistant Staphylococcus aureus NCTC 10442; format: toxicity, cell-based; conditions: human, read-out: Selectivity Index
[13] = system: Staphylococcus aureus; assay: Antibacterial activity against Staphylococcus aureus ATCC 29213 assessed as loss in cell viability at 8 times MIC incubated for 4 hrs by LIVE/DEAD BacLight bacterial viability assay; format: functional, organism-based; conditions: Cell membrane
[14] = system: Staphylococcus aureus; assay: Antibacterial activity against methicillin resistant Staphylococcus aureus N315 in presence of 20 umol/L Fe2+ by broth microdilution method; format: functional
[15] = system: Klebsiella pneumoniae; assay: Antibacterial activity against Klebsiella pneumoniae ATCC 10031 assessed as cell membrane disruption by SYTOX Green assay; format: functional, organism-based
[16] = system: Staphylococcus aureus; assay: Inhibition of biofilm formation in Staphylococcus aureus ATCC 29213 by crystal violet staining assay; format: functional, organism-based; conditions: dose 0.39-12.5 µg/ml
[17] = system: Staphylococcus aureus; assay: Antibacterial activity against methicillin resistant Staphylococcus aureus NCTC 10442 in presence of 2.5 mmol/L Ca2+ by broth microdilution method; format: functional
[18] = system: Staphylococcus aureus; assay: Inhibition of biofilm formation in Staphylococcus aureus ATCC 29213 at 3.125 ug/ml by crystal violet staining assay relative to control; format: functional
[19] = system: Staphylococcus aureus; assay: Antibacterial activity against Staphylococcus aureus ATCC 29213 assessed as log reduction in bacterial load at 8 times MIC measured after 2 hrs by time kill assay; format: functional
[20] = system: Staphylococcus aureus; assay: Antibacterial activity against Staphylococcus aureus ATCC 29213 infected in cyclophosphamide immunosuppressed keratitis mouse model assessed as log reduction in number of viable bacterial colonies at 10 mg/ml administrated tropically; format: functional
[21] = system: Klebsiella pneumoniae; assay: Antibacterial activity against Klebsiella pneumoniae ATCC 14581 in presence of 140 mmol/L Na+ by broth microdilution method; format: functional
[22] = Selectivity index, ratio of CC50 for cytotoxicity against mouse NCTC clone 929 cells to MIC for antibacterial activity against methicillin resistant Staphylococcus aureus N315; format: toxicity, cell-based; conditions: read-out: Selectivity Index
[23] = system: Klebsiella pneumoniae; assay: Antibacterial activity against Klebsiella pneumoniae ATCC 10031 assessed as loss in cell viability at 8 times MIC incubated for 4 hrs by LIVE/DEAD BacLight bacterial viability assay; format: functional, organism-based; conditions: Cell membrane
[24] = system: Staphylococcus aureus; assay: Induction of resistance development in Staphylococcus aureus ATCC 29213 assessed as fold increase in MIC treated over 20 serial passages by microdilution assay; format: functional
[25] = system: Pseudomonas aeruginosa; assay: Antibacterial activity against Pseudomonas aeruginosa ATCC 9027 in presence of 140 mmol/L Na+ by broth microdilution method; format: functional
[26] = system: Pseudomonas aeruginosa; assay: Antibacterial activity against Pseudomonas aeruginosa ATCC 9027 by microbroth dilution assay; format: functional
[27] = system: Klebsiella pneumoniae; assay: Antibacterial activity against Klebsiella pneumoniae ATCC 10031 assessed as reduction in bacterial load at 4 times MIC measured after 2 hrs by time kill assay relative to control; format: functional; set-up: scale not given: the % may be the effect or the level left
[28] = system: Klebsiella pneumoniae; assay: Antibiofilm activity against 24 hrs preformed biofilm in Klebsiella pneumoniae ATCC 10031 assessed as reduction in biofilm viability at […] ug/ml relative to control; format: functional; conditions: dose […] microg/ml; 1.56 ug/mL
[29] = Selectivity index, ratio of CC50 for cytotoxicity against mouse NCTC clone 929 cells to MIC for antibacterial activity against Klebsiella pneumoniae ATCC 14581; format: toxicity, cell-based; conditions: read-out: Selectivity Index
[30] = system: Klebsiella pneumoniae; assay: Inhibition of biofilm formation in Klebsiella pneumoniae ATCC 10031 at 0.78 ug/ml by crystal violet staining assay relative to control; format: functional
[31] = Selectivity index, ratio of CC50 for cytotoxicity against HEK293 cells to MIC for antibacterial activity against methicillin resistant Staphylococcus aureus N315; format: toxicity, cell-based; conditions: human, read-out: Selectivity Index
[32] = Cytotoxicity against mouse NCTC clone 929 cells assessed as cell survival rate at 3.125 ug/ml by CCK-8 assay relative to control; format: toxicity, cell-based; conditions: NCTC clone 929 (L929) cells, at 3.125 µg/mL, read-out: Activity
[33] = system: Klebsiella pneumoniae; assay: Inhibition of biofilm formation in Klebsiella pneumoniae ATCC 10031 at 3.125 ug/ml by crystal violet staining assay relative to control; format: functional
[34] = system: Klebsiella pneumoniae; assay: Antibacterial activity against Klebsiella pneumoniae ATCC 10031 assessed as log reduction in bacterial load at 8 times MIC measured after 2 hrs by time kill assay; format: functional
[35] = system: Klebsiella pneumoniae; assay: Antibiofilm activity against 24 hrs preformed biofilm in Klebsiella pneumoniae ATCC 10031 assessed as reduction in biofilm viability at 6.25 ug/ml relative to control; format: functional; conditions: dose 6.25 µg/ml
[36] = system: Escherichia coli; assay: Antibacterial activity against Escherichia coli ATCC 25922 in presence of 140 mmol/L Na+ by broth microdilution method; format: functional
[37] = system: Staphylococcus aureus; assay: Antibiofilm activity against 24 hrs preformed biofilm in Staphylococcus aureus ATCC 29213 assessed as reduction in biofilm viability at 12.5 ug/ml relative to control; format: functional; conditions: dose 12.5 µg/ml
[38] = system: Klebsiella pneumoniae; assay: Antibacterial activity against Klebsiella pneumoniae ATCC 10031 in presence of 4.5 mmol/L K+ by broth microdilution method; format: functional
[39] = system: Staphylococcus aureus; assay: Inhibition of biofilm formation in Staphylococcus aureus ATCC 29213 at 6.25 ug/ml by crystal violet staining assay relative to control; format: functional
[40] = Hemolytic activity in rabbit erythrocytes; format: toxicity, cell-based, Oryctolagus cuniculus, Erythrocyte
[41] = Selectivity index, ratio of CC50 for cytotoxicity against mouse NCTC clone 929 cells to MIC for antibacterial activity against Escherichia coli ATCC 25922; format: toxicity, cell-based; conditions: read-out: Selectivity Index

**Q.** Which results are given for `CCCCCCCN1c2ccccc2Sc2ccc(OCC(=O)N[C@@H](CCCNC(=N)N)C(=O)N[C@@H](CCCNC(=N)N)C(N)=O)cc21`?
**A.** MIC [1]: 3.12 µg/mL; selectivity ratio [2]: 8; MIC [3]: 3.12 µg/mL; log(activity) [4]: 5.93; MIC [5]: 1.56 µg/mL; MIC [6]: 3.12 µg/mL; MIC [7]: 3.12 µg/mL; MIC [8]: 1.56 µg/mL; Activity [9]: 82.83%; log(activity) [10]: >3; MIC [11]: 1.56 µg/mL (≈ 2.28 µM); selectivity ratio [12]: 8; Activity [13]: Active; MIC [14]: 1.56 µg/mL; Activity [15]: Dose-Dependent Effect; inhibition [16]: Dose-Dependent Effect; MIC [17]: 3.12 µg/mL; inhibition at 3.125 µg/mL [18]: 87.2%; log(activity) [19]: >3; log(activity) [20]: 5.28; MIC [21]: 3.12 µg/mL; selectivity ratio [22]: 8; Activity [23]: Active; fold change (FC) [24]: < 4; MIC [25]: 6.25 µg/mL; MIC [26]: 6.25 µg/mL (≈ 9.15 µM); Activity [27]: >99.9%; Activity [28]: 73.4%; selectivity ratio [29]: 8; inhibition at 0.78 µg/mL [30]: 27.1%; selectivity ratio [31]: 8; viability at 3.125 ug/ml [32]: 97.9%; inhibition at 3.125 µg/mL [33]: 73.8%; log(activity) [34]: >3; Activity [35]: 10.44%; MIC [36]: 3.12 µg/mL; Activity [37]: 9.12%; MIC [38]: 3.12 µg/mL; inhibition at 6.25 µg/mL [39]: 95.1%; HC50 [40]: 281 µg/mL; selectivity ratio [41]: 8
